In patent US20080305097A1, “Use of Protease or a Protease Inhibitor for the Manufacture of Medicaments” (YEDA RESEARCH AND DEVELOPMENT CO., LTD., priority 2004, published 2008):

Key:
SDF-1 [1] = experiment: SDF-1 transcription (RT-PCR) and secretion (ELISA) in primary calvaria osteoblasts; format: cell-based, mouse; details: 50 ng/ml, 3 days
Experimental: Osteoblast were incubated with G-CSF, HGF or remained untreated, and SDF-1 transcription and expression was determined in such cells (FIG. 9).
Primary calvaria osteoblasts were cultured for 3 days in the presence of SDF-1 (PeproTech, 100 […]), HGF (PeproTech, 50 ng/ml) and G-CSF (Filgrastin, Roche, 50 ng/ml). Conditioned media was collected to determine SDF-1 concentration by ELISA, as described in Example 2. Determination of SDF-1 transcription and expression as in Example 2.

osteoclast = experiment: In vivo osteoclast activation by SDF-1 or HGF, TRAP staining; set-up: species or system Balb/c mice; details: subcutaneously five consecutive days, 10 mcg SDF-1 or 1.5 mcg HGF
Experimental: (§1) We carried out the following experiment to verify in vivo our hypothesis that SDF-1 induces osteoclast activation and hematopoietic progenitor cell (HPC) mobilization. Balb/c mice were injected subcutaneously for five consecutive days with 10 mcg SDF-1 or 1.5 mcg HGF or both, and osteoclast activation (measured by TRAP+ staining as in Example 1) and mobilization to the peripheral blood, (assayed in semi solid culture as in Example 1) was determined.

[2] = test system: TRAP+ multinucleated osteoclasts; experiment: Osteoblast/BM co-culture, TRAP+ multinucleated osteoclast count; format: cell-based, mouse; details: G-CSF 50 ng/ml, HGF 50 ng/ml, SDF-1 10 and 100 ng/ml; 5 days
Experimental: Osteoclast precursors are stimulated by cell-cell contact with osteoblasts to become activated multinucleated TRAP+ bone resorbing cells. To obtain active osteoclasts in vitro, a clvarian osteoblasts are incubated with Vitamine D3 and PG2E which potentiate their M-CSF production and RANKL expression, needed for osteoclast activation. BM cells which contain osteoclast precursors are seeded then on the osteoblast monolayer, for 5 days, to obtain active multinucleated osteoclasts.
A co-culture of primary mouse osteoblasts and BM (containing ocl precursors as detailed above) was seeded in the presence of G-CSF (50 ng/ml), HGF (50 ng/ml), or SDF-1 (10 and 100 ng/ml). Five days later, TRAP+ multinucleated osteoclasts in the cultures were stained (as described in Example 1) and counted 5 days later.

[3] = test system: hematopoietic progenitor cell (HPC); experiment: In vivo progenitor mobilization by SDF-1 or HGF, semi solid culture; set-up: species or system Balb/c mice; details: subcutaneously five consecutive days, 10 mcg SDF-1 or 1.5 mcg HGF
Experimental: as §1
(§2) In order to detect the levels of mouse progenitors in the blood circulation, semisolid cultures were performed as previously described (Petit, Nat Immunol, 2002). In brief, mouse BM cells (3×10^5 cells/ml) were plated in 0.9% methylcellulose (Sigma), 30% FCS, 5×10^−5M 2ME, 50 ng/ml SCF, 5 ng/ml IL-3, 5 ng/ml GM-CSF (R&D), and 2 u/ml erythropoietin (Orto Bio Tech, Don Mills, Canada). The cultures were incubated at 37° C. in a humidified atmosphere containing 5% CO2 and scored 7 days later by inverted microscopy by morphologic criteria.

CXCR4 = CXCR4 expression in BM and PB by flow cytometry after LPS; format: in vivo, Balb/c mice; details: both BM and PB, 16 hours post LPS
Experimental: We monitored CXCR4 expression in BM and PB of LPS treated mice, 16 hours post LPS administration, and in control non treated mice.

SDF-1 [4] = experiment: Semi quantitative RT-PCR of BM after LPS: SDF-1; format: in vivo, mouse; details: LPS treated mice, 5 days
Experimental: (§3) One femur of each mouse was flushed with Trireagent for RNA extraction. 1 ug RNA was used for the preparation of cDNA. Semi quantitative RT-PCR was used to measure the transcription of mouse SDF-1, HGF and CTK. The following primers were used: SDF-1 (Ponomaryov, 2000, J. Clin. Invest. 106:1331): left primer (SEQ ID NO: 1) 5′-[…]-3′, right primer (SEQ ID NO: 2) 5′-[…]-3′. HGF (Weinstein, 2001, Moll Cell boil, 21(15):5122): left primer (SEQ ID NO: 3) 5′-[…]-3′, right primer (SEQ ID NO: 4) 5′-[…]-3′. CTK: left primer (SEQ ID NO: 5) 5′-[…]-3′, right primer (SEQ ID NO: 6) 5′-[…]-3′.

TRAP+ osteoclasts = experiment: TRAP staining of activated osteoclasts in BM after LPS; format: in vivo, Balb/c mice; details: LPS 250 μg/mouse single injection, 5 days later
Experimental: LPS (Sigma) was administered to Balb/c mice in a single subcutaneous injection of 250 μg/mouse, and saline was injected instead of LPS in control groups. 5 days following LPS administration, mice were sacrificed, bones were fixed, decalcified, paraffin embedded and sectioned, BM harvested, and the level of TRAP+ osteoclast (activated osteoclast) monitored.
In this assay substrate is exogeneously provided to measure intrinsic activity of the tissue TRAP in the BM of LPS treated mice (FIGS. 1A and B).

progenitors = experiment: CFU assay of progenitors in peripheral blood after LPS; format: in vivo, Balb/c mice
Experimental: Mice were administered for 5 days with LPS (as described in Example 1) and progenitor increase in peripheral blood (PB) was measured (as in Example 9).
as §2

mononuclear cells (MNC) = experiment: Mononuclear cell counts in BM and PB by hemacytometer after LPS; format: in vivo, Balb/c mice; details: 16 hours post LPS, versus non treated mice
Experimental: (§4) In order to verify that the progenitor increase detected in PB in the LPS treated mice, results from the egress or mobilization of cells from the bone marrow, mononuclear cells (MNC) were monitored in the BM and in PB by counting numbers of ficolled WBC (leukocytes), using hemacytometer shortly after LPS treatment (16 hours post LPS treatment) and in BM and PB of non treated mice (FIG. 3).

CTK = experiment: Semi quantitative RT-PCR of BM after LPS: CTK; format: in vivo, mouse; details: LPS treated mice, 5 days
Experimental: as §3

SDF-1 [5] = experiment: SDF-1 concentration in bone marrow by ELISA after LPS; format: in vivo, Balb/c mice
Experimental: Mice were administered for 5 days with LPS as described in example 1 and SDF-1 concentration in bone marrow was monitored (by ELISA as described by Petit et al 2002).
as §4

HGF = experiment: Semi quantitative RT-PCR of BM after LPS: HGF; format: in vivo, mouse; details: LPS treated mice, 5 days
Experimental: as §3

Row | Substance | SDF-1 transcription in osteoblasts (SDF-1 [1]) | SDF-1 production in osteoblasts (SDF-1 [1]; conditioned media ELISA) | osteoclast activation in vivo (osteoclast) | level of activated TRAP+ osteoclasts [2] | mobilization of progenitors in vivo [3] | level of CXCR4 expression (CXCR4) | SDF-1 transcription in the BM (SDF-1 [4]) | TRAP+ osteoclasts in the BM (TRAP+ osteoclasts) | progenitor mobilization (progenitors; 16 hours post LPS) | level of progenitors in PB, higher than control non-treated mice (progenitors; 5 days LPS) | progenitor colonies in PB (progenitors; 5 days LPS) | decrease of MNC cells in the BM (mononuclear cells (MNC)) | increase of MNC cells in the PB (mononuclear cells (MNC)) | CTK transcription in the BM (CTK) | decrease in BM SDF-1 concentration (SDF-1 [5]; 16 hours post LPS, versus non treated mice) | BM SDF-1 concentration (SDF-1 [5]; 5 days LPS) | decrease in BM SDF-1 concentration (SDF-1 [5]; 5 days LPS, versus non-treated control) | HGF transcription in the BM (HGF)
1 | HGF: hepatocyte growth factor (PeproTech) | induce | induce | induced | significantly increased | induced |  |  |  |  |  |  |  |  |  |  |  |  | 
2 | lipopolysaccharide [LPS] |  |  |  |  |  | significant increase | decrease | dramatic increase in TRAP+ osteoclasts | significant increase in progenitor mobilization | about 95% | about 100 colonies per 5×10^5 seeded cells | about 53% | about 78% | dramatic increase | about 55% | 0.4 ng/mg protein | about 66% | dramatic increase
